Converted amounts (≈) assume the structure as drawn.
Tests used:
[1] = system: Mycobacterium tuberculosis; experiment: Antimycobacterial activity against Mycobacterium tuberculosis H37Rv ATCC 27294 incubated for 5 days by microplate alamar blue assay; type: functional; conditions: H37Rv ATCC 27294, 120 h
[2] = Selectivity index, ratio of CC50 for African green monkey Vero cells to MIC for Mycobacterium tuberculosis H37Rv ATCC 27294; type: toxicity, cell-based; conditions: read-out: Selectivity Index
[3] = Cytotoxicity against African green monkey Vero cells assessed as reduction in cell viability after 72 hrs by MTT assay; type: cell-based; conditions: chlorocebus sabaeus

| Compound | MIC [1] [µg/mL] | selectivity ratio [2] | CC50 at 72 h [3] [µg/mL] |
| --- | --- | --- | --- |
| CCN(CC)CC(=O)c1c(C)[n+]([O-])c2ccccc2[n+]1[O-] | 50 (≈ 173 µM) |  |  |
| Cc1ccc(SCC(=O)c2c(C)[n+]([O-])c3ccccc3[n+]2[O-])cc1 | 0.78 (≈ 2.29 µM) | 64 | 50 (≈ 147 µM) |
| Cc1c(C(=O)CSc2nc3ccccc3s2)[n+]([O-])c2ccccc2[n+]1[O-] | 1.56 (≈ 4.07 µM) | 32 | 50 (≈ 130 µM) |
| Cc1c(C(=O)CNc2nccs2)[n+]([O-])c2ccccc2[n+]1[O-] | 50 (≈ 158 µM) |  |  |
| Cc1c(C(=O)CN2CCCCC2)[n+]([O-])c2ccccc2[n+]1[O-] | 25 (≈ 83 µM) |  |  |
| Cc1c(C(=O)CSCCNC(=O)[C@@H](N)Cc2c[nH]c3ccccc23)[n+]([O-])c2ccccc2[n+]1[O-] | 6.25 (≈ 13 µM) | > 16 | > 100 |
| Cc1c(C(=O)CSCCNC(=O)c2ccncc2)[n+]([O-])c2ccccc2[n+]1[O-] | 6.25 (≈ 15.7 µM) |  | 50 (≈ 125 µM) |
| Cc1c(C(=O)CN2CCN(C)CC2)[n+]([O-])c2ccccc2[n+]1[O-] | 50 (≈ 158 µM) |  |  |
| Cc1ccc(N(C)CC(=O)c2c(C)[n+]([O-])c3ccccc3[n+]2[O-])cc1 | 25 (≈ 74.1 µM) |  |  |
| Cc1c(C(=O)CN(C)Cc2ccccc2)[n+]([O-])c2ccccc2[n+]1[O-] | 50 (≈ 148 µM) |  |  |
| Cc1c(C(=O)CSc2ccccc2)[n+]([O-])c2ccccc2[n+]1[O-] | 1.56 (≈ 4.78 µM) | 32 | 50 (≈ 153 µM) |
| Cc1c(C(=O)CSc2nc3ccccc3o2)[n+]([O-])c2ccccc2[n+]1[O-] | 3.13 (≈ 8.52 µM) | 16 | 50 (≈ 136 µM) |
| Cc1c(C(=O)CSc2nc[nH]n2)[n+]([O-])c2ccccc2[n+]1[O-] | 0.39 (≈ 1.23 µM) | 128 | 50 (≈ 158 µM) |
| COc1ccc(C(=O)NCCSCC(=O)c2c(C)[n+]([O-])c3ccccc3[n+]2[O-])cc1 | 3.13 (≈ 7.32 µM) | > 32 | > 100 |
| NNC(=O)c1ccncc1 [ISONIAZID] | 0.2 (≈ 1.46 µM) |  |  |
| Cc1c(C(=O)CSCCNC(=O)C2CCCCC2)[n+]([O-])c2ccccc2[n+]1[O-] | 12.5 (≈ 31 µM) |  |  |
| Cc1c(C(=O)CSCCNC(=O)[C@@H](N)Cc2ccc(O)cc2)[n+]([O-])c2ccccc2[n+]1[O-] | 25 (≈ 54.8 µM) |  |  |

| Compound | MIC [1] [µg/mL] | selectivity ratio [2] | CC50 at 72 h [3] [µg/mL] |
| --- | --- | --- | --- |
| Cc1c(C(=O)CSCCNC(=O)c2ccc(F)cc2)[n+]([O-])c2ccccc2[n+]1[O-] | 1.56 (≈ 3.76 µM) | > 128 | > 100 |
| Cc1c(C(=O)CSc2ccc(F)cc2)[n+]([O-])c2ccccc2[n+]1[O-] | 0.39 (≈ 1.13 µM) | 128 | 50 (≈ 145 µM) |
| Cc1c(C(=O)CSCCNC(=O)[C@@H](N)C(C)C)[n+]([O-])c2ccccc2[n+]1[O-] | 25 (≈ 63.7 µM) |  |  |
| Cc1c(C(=O)CN(C)c2ccc(F)cc2)[n+]([O-])c2ccccc2[n+]1[O-] | 6.25 (≈ 18.3 µM) | > 16 | > 100 |
| Cc1c(C(=O)CNc2nc3ccccc3[nH]2)[n+]([O-])c2ccccc2[n+]1[O-] | 12.5 (≈ 35.8 µM) |  |  |
| Cc1c(C(=O)CSCCN)[n+]([O-])c2ccccc2[n+]1[O-] | 50 (≈ 170 µM) |  |  |
| Cc1c(C(=O)CSc2nccs2)[n+]([O-])c2ccccc2[n+]1[O-] | 3.13 (≈ 9.39 µM) | 16 | 50 (≈ 150 µM) |
| Cc1c(C(=O)CN(C)c2ccccc2)[n+]([O-])c2ccccc2[n+]1[O-] | 25 (≈ 77.3 µM) |  |  |
| Cc1c(C(=O)CSCCNC(=O)c2cccs2)[n+]([O-])c2ccccc2[n+]1[O-] | 6.25 (≈ 15.5 µM) | > 16 | > 100 |
| COc1ccc(SCC(=O)c2c(C)[n+]([O-])c3ccccc3[n+]2[O-])cc1 | 0.78 (≈ 2.19 µM) | 64 | 50 (≈ 140 µM) |
| CC(=O)NCCSCC(=O)c1c(C)[n+]([O-])c2ccccc2[n+]1[O-] | 50 (≈ 149 µM) |  |  |
| COc1cc(C(=O)NCCSCC(=O)c2c(C)[n+]([O-])c3ccccc3[n+]2[O-])cc(OC)c1OC | 25 (≈ 51.3 µM) |  |  |
| Cc1c(C(=O)CN(C)C2CCCCC2)[n+]([O-])c2ccccc2[n+]1[O-] | 50 (≈ 152 µM) |  |  |
| Cc1c(C(=O)CSc2nc3ccccc3[nH]2)[n+]([O-])c2ccccc2[n+]1[O-] | 6.25 (≈ 17.1 µM) | 16 | 100 (≈ 273 µM) |
| Cc1c(C(=O)CSCCNC(=O)c2ccccc2)[n+]([O-])c2ccccc2[n+]1[O-] | 6.25 (≈ 15.7 µM) | > 16 | > 100 |
| Cc1c(C(=O)CSCCNC(=O)c2ccc3ccccc3c2)[n+]([O-])c2ccccc2[n+]1[O-] | 6.25 (≈ 14 µM) | > 16 | > 100 |
| Cc1c(C(=O)CSCCO)[n+]([O-])c2ccccc2[n+]1[O-] | 50 (≈ 170 µM) |  |  |

From ChEMBL document CHEMBL3826937, “Synthesis, 3D-QSAR analysis and biological evaluation of quinoxaline 1,4-di-N-oxide derivatives as antituberculosis agents” (Bioorg Med Chem Lett, 2016)
